Test results taken from patent US9415047B2, “Use of benzo five-membered nitrogen heterocyclic piperazine or piperidine derivatives” (Liaoning Emmy Biological Pharmaceutical Co., Ltd., priority 2012, dated 2016).

Legend:
[1] = tested on: NA constricted rabbit aorta; assay: Relaxing effects on vascular smooth muscle constricted by noradrenaline (NA) in vitro; details: relaxation of rabbit aorta constricted by noradrenaline (10^−5 mol/L), mean±SEM, n=5; for EC50: Oryctolagus cuniculus
Experimental: Adrenaline hydrochloride (AD) (10^−5 mol/L) was added into a bath tube to induce constriction, when maximal constriction was achieved, the sample was completely flushed, K-H solution was changed for every 20 min. Contents in the tube was balanced for 60 min, when baseline recovered to be stable, noradrenaline bitartrate (NA) (10^−5 mol/L) was added to induce constriction. When the later maximal constriction response was basically consistent with the former one, the prepared compound solutions were subsequently added, including compound II-84 to II-123 solutions (1×10^−10-1×10^−2 mol/L), compound II-124 to II-157 solutions (1×10^−10-1×10^−3 mol/L), to record the waveforms. Relaxing percentage of the compound was used as Y axis, maximal relaxation response was 100%, negative logarithm of different concentration was used as X axis, to draw dose effect curve (expressed in mean±SEM ( ? ), n=5).

[2] = tested on: AD constricted rabbit aorta; assay: Relaxing effects on vascular smooth muscle constricted by adrenaline hydrochloride (AD) in vitro; details: relaxation of rabbit aorta constricted by adrenaline (10^−5 mol/L), mean±SEM, n=5; for EC50: Oryctolagus cuniculus
Experimental: Adrenaline hydrochloride (AD) (10^−5 mol/L) was added into a bath tube to induce constriction, when maximal constriction was achieved, the sample was completely flushed, K-H solution was changed for every 20 min. Contents in the tube was balanced for 60 min, when baseline recovered to be stable, the […] was added at the same concentration to induce constriction. When the later maximal constriction response was basically consistent with the former one, the prepared compound solutions were subsequently added, including compound II-1 to II-60 solutions (1×10^−8-1×10^−3 mol/L), compound II-84 to II-123 solutions (1×10^−10-1×10^−2 mol/L) and compound II-124 to II-157 solutions (1×10^−10˜1×10^−3 mol/L), to record the waveforms. Relaxing percentage of the compound was used as Y axis, maximal relaxation response was 100%, negative logarithm of different concentration was used as X axis, to draw dose effect curve (expressed in mean±SEM ( ? ), n=5). Compounds II-2 and II-3 had the most obvious relaxing effects (FIG. 1 and FIG. 8).

[3] = tested on: high kalium concentration constricted rabbit aorta; assay: Relaxing effects on vascular smooth muscle constricted by high kalium concentration in vitro; details: Oryctolagus cuniculus, relaxation of rabbit aorta constricted by high kalium solution (K+ 60 mmol/L); mean±SEM, n=5
Experimental: Adrenaline hydrochloride (AD) (10^−5 mol/L) was added into a bath tube to induce constriction, when maximal constriction was achieved, the sample was completely flushed, K-H solution was changed for every 20 min. Contents in the tube was balanced for 60 min, when baseline recovered to be stable, K-H solution in the bath tube was replaced with high kalium concentration solution to induce constriction. When the later maximal constriction response was basically consistent with the former one, the prepared compound solutions were subsequently added, including compound II-1 to II-60 solutions (1×10^−8-1×10^−3 mol/L), compound II-84 to II-123 solutions (1×10^−10-1×10^−2 mol/L) and compound II-124 to II-157 solutions (1×10^−10-1×10^−3 mol/L), to record the waveforms. Relaxing percentage of the compound was used as Y axis, maximal relaxation response was 100%, negative logarithm of different concentration was used as X axis, to draw dose effect curve (expressed in mean±SEM ( ? ), n=5). Compounds II-2 and II-3 had the most obvious relaxing effects (FIG. 2 and FIG. 9).

EC50 [2] | EC50 [1] | EC50 [3] | SMILES | −logEC50 [1] | −logEC50 [2]
 |  |  | c1ccc2c(C3CCN(CCCCn4nnc5ccccc54)CC3)cccc2c1 [II-156, N-(4-(1H-benzotriazole-1-yl)butyl)-4-(1-naphthyl)piperidine] | 4.34 ± 0.04 | 4.22 ± 0.06
9.33 µM |  |  | Clc1cccc(C2CCN(CCCCn3cnc4ccccc43)CC2)c1 [II-124, N-(4-(1H-benzimidazoyl-1-yl)butyl)-4-(3-chlorophenyl)piperidine] | 5.11 ± 0.02 | 
2.45 µM | 1.86 µM |  | Fc1ccc2c(C3CCN(CCCn4nnc5ccc(F)cc54)CC3)noc2c1 [II-137, N-(3-(6-fluoro-1H-benzotriazole-1-yl)propyl)-4-(3-(6-fluorobenzisoxazolyl))piperidine] |  | 
 | 1.86 µM |  | Fc1ccc2c(C3CCN(CCCCn4nnc5ccccc54)CC3)noc2c1 [II-95, N-(4-(1-benzotriazolyl)butyl)-4-(3-(6-fluorobenzisoxazolyl))piperidine] |  | 
0.776 µM |  |  | COc1ccc2nnn(CCCN3CCC(c4noc5ccccc45)CC3)c2c1 [II-142, N-(3-(6-methoxylbenzotriazolyl)propyl)-4-(3-benzisoxazolyl)piperidine] | 6.07 ± 0.04 | 
2.75 µM |  |  | FC(F)(F)c1cccc(C2CCN(CCCOn3nnc4ccccc43)CC2)c1 [II-133, N-(4-(1H-benzotriazole-1-yl)propoxyl)-4-(3-trifluoromethylphenyl)piperidine] | 5.36 ± 0.05 | 
12.9 µM |  |  | Fc1cccc(C2CCN(CCCCn3cnc4ccccc43)CC2)c1 [II-128, N-(4-(1H-benzimidazoyl-1-yl)butyl)-4-(3-fluorophenyl)piperidine] | 4.67 ± 0.02 | 
 | 1.55 µM |  | Fc1ccc2c(C3CCN(CCn4nnc5ccccc54)CC3)noc2c1 [II-94, N-(2-(1-benzotriazolyl)ethyl)-4-(3-(6-fluorobenzisoxazolyl))piperidine] |  | 
16.2 µM |  |  | N#Cc1ccc2nnn(CCCCN3CCC(c4cccc(C(F)(F)F)c4)CC3)c2c1 [II-132, N-(4-(6-cyano-1H-benzotriazole-1-yl)butyl)-4-(3-trifluoromethylphenyl)piperidine] | 4.53 ± 0.02 | 
 |  |  | c1ccc2c(c1)nnn2CCCCN1CCC(C2CCCCC2)CC1 [II-155, N-(4-(1H-benzotriazole-1-yl)butyl)-4-cyclohexyl piperidine] | 4.44 ± 0.05 | 4.39 ± 0.05
13.8 µM |  |  | COc1ccc2nnn(CCCCN3CCC(c4cccc(C(F)(F)F)c4)CC3)c2c1 [II-131, N-(4-(6-methoxyl-1H-benzotriazole-1-yl)butyl)-4-(3-trifluoromethylphenyl)piperidine] | 4.77 ± 0.03 | 
4.9 µM |  |  | FC(F)(F)c1cccc(C2CCN(CCCOn3cnc4ccccc43)CC2)c1 [II-134, N-(4-(1H-benzimidazole-1-yl)propoxyl)-4-(3-trifluoromethylphenyl)piperidine] | 5.15 ± 0.06 | 
 | 64.6 µM |  | COc1ccc2nnn(CCCN3CCC(c4nsc5cc(F)ccc45)CC3)c2c1 [II-100] |  | 
17.4 µM |  |  | COc1ccccc1C1CCN(CCCCn2cnc3ccccc32)CC1 [II-129, N-(4-(1H-benzimidazoyl-1-yl)butyl)-4-(2-methoxylphenyl)piperidine] | 4.55 ± 0.03 | 
6.92 µM |  |  | Clc1cccc(C2CCN(CCCCn3nnc4ccccc43)CC2)c1 [II-125, N-(4-(1H-benzotriazole-1-yl)butyl)-4-(3-chlorophenyl)piperidine] | 5.27 ± 0.03 | 
 | 37.2 µM |  | COc1ccc2nnn(CCCN3CCC(c4n[nH]c5cc(F)ccc45)CC3)c2c1 [II-101] |  | 
0.617 µM |  |  | FC(F)(F)c1cccc(C2CCN(CCCCn3cnc4ccccc43)CC2)c1 [II-126, N-(4-(1H-benzimidazoyl-1-yl)butyl)-4-(3-trifluoromethylphenyl)piperidine] | 6.32 ± 0.04 | 

EC50 [2] | EC50 [1] | EC50 [3] | SMILES | −logEC50 [1] | −logEC50 [2]
 | 4.9 µM |  | N#Cc1ccc2nnn(CCCCN3CCC(c4noc5cc(F)ccc45)CC3)c2c1 [II-96, N-(4-(6-cyanobenzotriazolyl)butyl)-4-(3-(6-fluorobenzisoxazolyl))piperidine] |  | 
4.17 µM |  |  | Cc1ccc2nnn(CCCN3CCC(c4noc5cc(F)ccc45)CC3)c2c1 [II-139, N-(3-(6-methyl-1H-benzotriazole-1-yl)propyl)-4-(3-(6-fluorobenzisoxazolyl))piperidine] | 5.35 ± 0.03 | 
0.437 µM |  |  | FC(F)(F)c1cccc(C2CCN(CCCCn3nnc4ccccc43)CC2)c1 [II-127, N-(4-(1H-benzotriazole-1-yl)butyl)-4-(3-trifluoromethylphenyl)piperidine] | 6.45 ± 0.03 | 
2.75 µM |  |  | O=Cc1ccc2nnn(CCCN3CCC(c4noc5cc(F)ccc45)CC3)c2c1 [II-141, N-(3-(6-formoxyl-1H-benzotriazole-1-yl)propyl)-4-(3-(6-fluorobenzisoxazolyl))piperidine] | 5.73 ± 0.04 | 
4.9 µM |  |  | Fc1ccc2nnn(CCCCN3CCC(c4cccc(C(F)(F)F)c4)CC3)c2c1 [II-130, N-(4-(6-fluoro-1H-benzotriazole-1-yl)butyl)-4-(3-trifluoromethylphenyl)piperidine] | 5.21 ± 0.04 | 
 |  |  | c1ccc2nc(C3CCN(CCCCn4nnc5ccccc54)CC3)cnc2c1 [II-157, N-(4-(1H-benzotriazole-1-yl)butyl)-4-(2-quinoxalinyl)piperidine] | 4.53 ± 0.05 | 4.83 ± 0.05
4.57 µM | 9.12 µM |  | COc1ccc2c(C3CCN(CCCn4nnc5ccccc54)CC3)noc2c1 [II-136, N-(3-(1H-benzotriazole-1-yl)propyl)-4-(3-(6-methoxylbenzisoxazolyl))piperidine] |  | 
37.2 µM |  |  | c1coc(C2CCN(CCCCn3cnc4ccccc43)CC2)c1 [II-152, N-(4-(1H-benzimidazoyl-1-yl)butyl)-4-(2-furyl)piperidine] | 4.23 ± 0.03 | 
13.8 µM |  |  | c1ccc2c(c1)ncn2CCCCN1CCC(c2ccncc2)CC1 [II-153, N-(4-(1H-benzimidazoyl-1-yl)butyl)-4-(4-pyridyl)piperidine] | 4.66 ± 0.02 | 
5.89 µM |  |  | COc1ccc2c(C3CCN(CCCCn4nnc5ccc(C#N)cc54)CC3)noc2c1 [II-146, N-(4-(6-cyanobenzotriazolyl)butyl)-4-(3-(6-methoxylbenzisoxazolyl))piperidine] | 5.09 ± 0.04 | 
3.55 µM | 5.5 µM |  | Cc1ccc2c(C3CCN(CCCn4nnc5ccccc54)CC3)noc2c1 [II-135, N-(3-(1H-benzotriazole-1-yl)propyl)-4-(3-(6-methylbenzisoxazolyl))piperidine] |  | 
3.89 µM |  | 24.5 µM | Fc1ccc2nnn(CCCCN3CCN(c4cccc(C(F)(F)F)c4)CC3)c2c1 [II-32, 6-fluoro-1-(4-(4-(3-trifluoromethylphenyl)piperazine-1-yl)butyl)-1H-benzotriazole] |  | 
55 µM |  | 110 µM | N#Cc1cccc(N2CCN(CCCCn3cnc4ccccc43)CC2)c1 [II-10, 1-(4-(4-(3-cyanophenyl)piperazine-1-yl)butyl)-1H-benzimidazole] |  | 
 |  |  | c1cnc(C2CCN(CCCCn3cnc4ccccc43)CC2)nc1 [II-154, N-(4-(1H-benzimidazoyl-1-yl)butyl)-4-(2-pyrimidinyl)piperidine] | 4.52 ± 0.04 | 4.72 ± 0.03
1.2 µM |  | 120 µM | Fc1ccc2c(C3CCN(CCn4nnc5ccccc54)CC3)noc2c1 [II-143, N-(2-(1-benzotriazolyl)ethyl)-4-(3-(6-fluorobenzisoxazolyl))piperidine] |  | 
89.1 µM |  | 141 µM | Cc1ccc(N2CCN(CCCCn3cnc4ccccc43)CC2)cc1 [II-11, 1-(4-(4-(4-methylphenyl)piperazine-1-yl)butyl)-1H-benzimidazole] |  | 
